Experiments:
αSyn = conditions: cited from earlier work
Description: Building on our findings that the presence of residues 8–11 in NAC peptides, corresponding to αSyn 68–71, is necessary for efficient nucleation and aggregation, we investigated whether disrupting this hydrophobic region could inhibit full‐length αSyn aggregation. Truncating these residues abolished aggregation, and peptides containing them (e.g., NAC16, NAC11) aggregated rapidly (Fig. 1). To test whether targeting this site could suppress aggregation, we selected a previously validated inhibitor peptide based on the KISVRV sequence. This segment mimics the 70–75 region of αSyn, a hydrop ...

[1] = system: HEK293T αSyn (A53T) CFP/YFP biosensor cells; assay: Cell seeding assay (CFP/YFP inclusions, FRET flow cytometry); assay type: cell-based; conditions: 1 μM total or insoluble fraction, TurboFect
Description: HEK293T αSyn (A53T) CFP/YFP biosensor cells (HEK293T parental line, RRID:CVCL_0063) were kindly provided by Dr. Marc Diamond from the University of Texas Southwestern Medical Center (Dallas, TX, USA). The cells were not further authenticated but were routinely tested and confirmed to be mycoplasma‐free using PCR‐based assays. The cells were maintained in complete growth media consisting of 88% Dulbecco's modified Eagle's growth medium (Lonza, Walkersville, MD, USA, Cat. # 12‐604F), supplemented with 10% (v/v) fetal bovine serum (Thermo Fisher Scientific Inc., Cat. # A5256701), 10 mM HEPES (Serana Europe GmbH, Brandenburg, Germany; Cat # BSL‐001‐100ML), 1% (v/v) GlutaMAX™ Supplement (Thermo Fisher Scientific Inc., Cat. # 35050061), and 1% (v/v) Penicillin–Streptomycin Solution (Thermo Fisher Scientific Inc., Cat. # 15140130). Cells were maintained at 37 °C in a humidified incubator with 5% CO2/atmospheric air. […]
Cells were imaged using a high‐content imaging system (Cell Voyager 7000S; Yokogawa, Tokyo, Japan) with a 20× objective. CFP/YFP inclusions of αSyn (A53T) were detected using a 488 nm laser line (Ex = 460–490 nm, Em = 500–550 nm), while Hoechst‐33 342‐stained nuclei were detected using the 405 nm laser line (Ex = 360–400 nm, Em = 410–480 nm). […]

recombinant αSyn = assay: Effect of inhibitor peptides on αSyn aggregation (ThT, TEM, dot blot, Coomassie gel); assay type: biochemical, human
Protocol: For monitoring the effect of inhibitor peptides on αSyn aggregation, recombinant αSyn was incubated with PD, PL, PB, or scrambled peptides at a 1 : 2 molar ratio (100–150 μM αSyn:200–300 μM inhibitor) in the presence of 50 μM ThT. The incubation was performed at 37 °C with constant agitation at 850 rpm in a Turbo Thermo Shaker (TMS‐200; Allsheng, Hangzhou, China). The formation of amyloid fibrils was monitored by measuring ThT fluorescence over 72 h, as described previously.
To fractionate aggregated samples (recombinant αSyn or NAC peptides), 20% of the aggregation mixture was set aside as the ‘total fraction’. The remaining sample was centrifuged at room temperature at 65 000 g for 1 h. The supernatant was collected as the ‘soluble fraction’ and transferred to a fresh tube. The pellet was resuspended in 80 μL of 1× PBS (pH 7.2) and centrifuged at 65 000 g for 1 h. After removing the supernatant, the pellet was resuspended in 8 μL of 1× PBS (pH 7.2), yielding a 10× concentrated ‘insoluble fraction’.
Samples were dropped on glow‐discharged carbon‐coated copper grids and negatively stained with 2% uranyl acetate. Electron microscopy was performed on a Tecnai G2 F20 microscope (FEI Technologies, Hillsboro, OR, USA) with an Eagle 4K CCD camera (FEI Technologies) or a CM100 TWIN Transmission Electron Microscope (Philips, Amsterdam, Netherlands) equipped with a side‐mounted Veleta Camera (Olympus, Tokyo, Japan) and processed in the iTEM software suite (Olympus). After bringing the images to 2048 × 2048 pixels, the pixel size at the specimen level was 1.14 nm. Approximately 20 micrographs of each specimen were recorded and evaluated.
The samples were mixed with 2× Laemmli buffer [62.5 mM Tris/HCl (pH 6.8), 25% (w/v) glycerol, 2% SDS, and 0.01% Bromophenol Blue, supplemented with 5% (v/v) 2‐mercaptoethanol] and boiled at 95 °C for 5 min. The samples were then subjected to electrophoresis using Mini‐PROTEAN TGX 4–20% Precast gels (Bio‐Rad, Hercules, CA, USA, Cat. # 4561095) in Tris/glycine/SDS running buffer (Bio‐Rad). […]

[2] = Self-aggregation of inhibitor peptides alone (ThT, SEM); assay type: physicochemical; conditions: Fig. S8
Protocol: NAC peptides stored at −80 °C were thawed on ice and centrifuged at 12 100 g for 45 s. A reaction mixture (40 μL) was prepared on ice containing 100 μM NAC peptide, either alone or in combination with inhibitor peptides at a 1 : 2 molar ratio, along with 15 μM ThT (Sigma‐Aldrich, Burlington, MA, USA; Cat. # T3516‐5G) in 1× PBS (pH 7.2). This mixture was then dispensed into a clear‐bottom, black 384‐well plate (Revvity, Waltham, MA, USA), and the plate was sealed with a TopSealA‐PLUS (Revvity) to prevent evaporation.
The aggregation kinetics was monitored on an EnSpire Multimode Plate Reader (Revvity) at 37 °C with a constant agitation of 1000 rpm. To prevent condensation in the assay plate, the upper heater temperature in the plate reader was set to 2 °C higher than the lower heater temperature. ThT (Ex: 460–490 nm, Em: 500–550 nm) fluorescence readings were recorded every 5–10 min for 48–72 h. The aggregation lag time was determined by fitting a Boltzmann sigmoidal equation to the fluorescence data in OriginPro 2024 (OriginLab Corporation, Northampton, MA, USA).
NAC peptides aggregated in the absence or presence of inhibitor peptides, as described in the section Aggregation Kinetics, were collected and pooled into Eppendorf tubes. Approximately 2 μL of each sample was drop‐cast onto a silicon wafer and air‐dried at room temperature. […]

KISVRV
effect on preformed αSyn oligomers (αSyn): dissolve preformed oligomers | effect on αSyn fibril formation (αSyn): inhibit αSyn fibril formation

KISVRVRRRRRR [PB]
reduction of seed competency of αSyn fibrils, ranking ([1]; 72 h, Fig. 5C,D): most effective

KISVRVRRRRRR [PD]
inhibition of αSyn aggregation (ThT kinetics) (recombinant αSyn; αSyn : peptide 1 : 2 molar ratio (100–150 μM : 200–300 μM), 50 μM ThT, 37 °C, 850 rpm, 72 h, n = 3): highly effective in inhibiting αSyn aggregation | CFP/YFP inclusions in cells transduced with αSyn fibrils formed with inhibitor ([1]; αSyn : peptide 1 : 2 for 72 h, n = 3): reduced inclusions

VSRKIVRRRRR [PS]
final ThT reading normalized to control (amyloid fibrils formed) (recombinant αSyn; αSyn : peptide 1 : 2, end of aggregation assay, n = 3 (PS n = 2)): increase in αSyn aggregation | αSyn fibrils by TEM (recombinant αSyn; αSyn aggregated with peptide at 1 : 2): fibril morphology was unaffected | self-aggregation (ThT kinetics of peptide alone) [2]: no signs of self‐aggregation

Reference: publication PMC12797002, “Hydrophobic residues in the α‐synuclein NAC domain drive seed‐competent fibril formation and are targeted by peptide inhibitors” (The Febs Journal, 2025)
